Here are results for 16 compounds from patent US9125913B2, “Bcl-2-selective apoptosis-inducing agents for the treatment of cancer and immune diseases” (AbbVie Inc., priority 2008, dated 2015).

One series has as its system GST-Bcl-2. Description: TR-FRET binding assay, Bcl-2. The following applies: TR-FRET Ki values. The essentials:
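Compounds serially diluted in DMSO from 50 μM (2× starting concentration, 10% DMSO), mixed with GST-tagged protein, F-Bak peptide probe and Tb-labeled antibody, incubated 3 h at room temperature.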
For orientation: Time-resolved FRET reads energy transfer from a long-lived donor to a nearby acceptor.

For another series, the system named is FL5.12/Bcl-2 cells. Description: FL5.12/Bcl-2 cell viability assay. It counts as cell-based, murine. The settings on record: ratio of canine platelet EC50 to FL5.12/Bcl-2 EC50. The essentials:
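IL-3 withdrawal 48 hrs (no WEHI-3B medium), then compound 24 hrs, various concentrations; 37° C, 5% CO2; readout CellTitre Glo. Murine prolymphocytic FL5.12 stably overexpressing Bcl-2.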

Series [1] has as its system circulating platelets. The settings on record: following injection into C57BL/6 mice; cited from earlier work.
Series [2] concerns circulating platelets. The following applies: following injection in beagle canines; cited from earlier work.

Molecules are shown by their SMILES. Like-named read-outs stand apart in the source and are kept apart here. Some results are limits rather than exact numbers.

In the case of `CN(C)CCOc1cccc(-c2ccc(Cl)cc2)c1CN1CCN(c2ccc(C(=O)NS(=O)(=O)c3ccc(NCC4CCOCC4)c([N+](=O)[O-])c3)c(Oc3ccccc3)c2)CC1` [Example 122, 4-[4-({4′-chloro-3-[2-(dimethylamino)ethoxy]-1,1′-biphenyl-2-yl}methyl)piperazin-1-yl]-N-({3-nitro-4-[(tetrahydro-2H-pyran-4-ylmethyl)amino]phenyl}sulfonyl)-2-phenoxybenzamide], the “Binding selectivity ratio (Bcl-XL Ki/Bcl-2 Ki)” value (from here on “Binding selectivity ratio”) in the series on GST-Bcl-2 is listed as 209.4. Further, the “Selectivity Ratio (Platelet EC50/FL5.12/Bcl-2 EC50)” value in the series on FL5.12/Bcl-2 cells was greater than 1259.

Consider `CN(C)CCCNc1ccc(S(=O)(=O)NC(=O)c2ccc(N3CCN(Cc4ccccc4-c4ccc(Cl)cc4)CC3)cc2Oc2cccc3[nH]ccc23)cc1[N+](=O)[O-]` [Example 46, 4-{4-[(4′-chloro-1,1′-biphenyl-2-yl)methyl]piperazin-1-yl}-N-[(4-{[3-(dimethylamino)propyl]amino}-3-nitrophenyl)sulfonyl]-2-(1H-indol-4-yloxy)benzamide], for which the “Binding selectivity ratio” value in the series on GST-Bcl-2 stood at 119.2. The “Selectivity Ratio (Platelet EC50/FL5.12/Bcl-2 EC50)” value with FL5.12/Bcl-2 cells is on record as 725.

`O=C(NS(=O)(=O)c1ccc(NCCCN2CCCC2)c([N+](=O)[O-])c1)c1ccc(N2CCN(Cc3cc(OCCN4CCOCC4)ccc3-c3ccc(Cl)cc3)CC2)cc1Oc1ccc2[nH]ccc2c1` [Example 136, 4-(4-{[4′-chloro-4-(2-morpholin-4-ylethoxy)-1,1′-biphenyl-2-yl]methyl}piperazin-1-yl)-2-(1H-indol-5-yloxy)-N-({3-nitro-4-[(3-pyrrolidin-1-ylpropyl)amino]phenyl}sulfonyl)benzamide]: the “Binding selectivity ratio” value in the series on GST-Bcl-2 stood at 238.9. For the same compound, in the series on FL5.12/Bcl-2 cells, the “Selectivity Ratio (Platelet EC50/FL5.12/Bcl-2 EC50)” value was greater than 263.

Consider `CN1CCC(Nc2ccc(S(=O)(=O)NC(=O)c3ccc(N4CCN(CC5=C(c6ccc(Cl)cc6)CCCCC5)CC4)cc3Oc3cccc4[nH]ccc34)cc2[N+](=O)[O-])CC1` [Example 147, 4-(4-{[2-(4-chlorophenyl)cyclohept-1-en-1-yl]methyl}piperazin-1-yl)-2-(1H-indol-4-yloxy)-N-({4-[(1-methylpiperidin-4-yl)amino]-3-nitrophenyl}sulfonyl)benzamide], for which the “Binding selectivity ratio” value in the series with GST-Bcl-2 is greater than 1284.0. The “Selectivity Ratio (Platelet EC50/FL5.12/Bcl-2 EC50)” value with FL5.12/Bcl-2 cells turned out to be 1895.

Consider `CN(C)CCOc1ccc(-c2ccc(Cl)cc2)c(CN2CCN(c3ccc(C(=O)NS(=O)(=O)c4ccc(NCC5CCOCC5)c([N+](=O)[O-])c4)c(Oc4ccc5[nH]ccc5c4)c3)CC2)c1` [Example 126, 4-[4-({4′-chloro-4-[2-(dimethylamino)ethoxy]-1,1′-biphenyl-2-yl}methyl)piperazin-1-yl]-2-(1H-indol-5-yloxy)-N-({3-nitro-4-[(tetrahydro-2H-pyran-4-ylmethyl)amino]phenyl}sulfonyl)benzamide], for which the “Binding selectivity ratio” value in the series with GST-Bcl-2 is listed as 13575. In addition, the “Selectivity Ratio (Platelet EC50/FL5.12/Bcl-2 EC50)” value with FL5.12/Bcl-2 cells is given as greater than 1618.

Take `CN(C)CCOc1ccc(-c2ccc(Cl)cc2)c(CN2CCN(c3ccc(C(=O)NS(=O)(=O)c4ccc(NC5CCN(CC(F)(F)F)CC5)c([N+](=O)[O-])c4)c(Oc4ccccc4)c3)CC2)c1` [Example 137, 4-[4-({4′-chloro-4-[2-(dimethylamino)ethoxy]-1,1′-biphenyl-2-yl}methyl)piperazin-1-yl]-N-[(3-nitro-4-{[1-(2,2,2-trifluoroethyl)piperidin-4-yl]amino}phenyl)sulfonyl]-2-phenoxybenzamide]: the “Binding selectivity ratio” value in the series on GST-Bcl-2 came to 52.4. The “Selectivity Ratio (Platelet EC50/FL5.12/Bcl-2 EC50)” value with FL5.12/Bcl-2 cells was greater than 178.

Turning to `CN(C)CCCNc1ccc(S(=O)(=O)NC(=O)c2ccc(N3CCN(Cc4ccccc4-c4ccc(Cl)cc4)CC3)cc2Oc2ccccc2)cc1[N+](=O)[O-]` [Example 154, 4-{4-[(4′-chloro-1,1′-biphenyl-2-yl)methyl]piperazin-1-yl}-N-[(4-{[3-(dimethylamino)propyl]amino}-3-nitrophenyl)sulfonyl]-2-phenoxybenzamide], the “Binding selectivity ratio” value in the series with GST-Bcl-2 is given as 40.4. The “Selectivity Ratio (Platelet EC50/FL5.12/Bcl-2 EC50)” value in the series on FL5.12/Bcl-2 cells came to 343.

Take `CC1(C)CCC(CN2CCN(c3ccc(C(=O)NS(=O)(=O)c4ccc(NCCCN5CCCC5)c([N+](=O)[O-])c4)c(Oc4cccc5[nH]ccc45)c3)CC2)=C(c2ccc(Cl)cc2)C1` [Example 102, 4-(4-{[2-(4-chlorophenyl)-4,4-dimethylcyclohex-1-en-1-yl]methyl}piperazin-1-yl)-2-(1H-indol-4-yloxy)-N-({3-nitro-4-[(3-pyrrolidin-1-ylpropyl)amino]phenyl}sulfonyl)benzamide]: the “Binding selectivity ratio” value with GST-Bcl-2 amounted to 64.1. Besides, in the series on FL5.12/Bcl-2 cells, the “Selectivity Ratio (Platelet EC50/FL5.12/Bcl-2 EC50)” value is listed as 996.

`O=C(NS(=O)(=O)c1ccc(NCC2CCOCC2)c([N+](=O)[O-])c1)c1ccc(N2CCN(Cc3c(OCCN4CCOCC4)cccc3-c3ccc(Cl)cc3)CC2)cc1Oc1ccc2[nH]ccc2c1` [Example 132, 4-(4-{[4′-chloro-3-(2-morpholin-4-ylethoxy)-1,1′-biphenyl-2-yl]methyl}piperazin-1-yl)-2-(1H-indol-5-yloxy)-N-({3-nitro-4-[(tetrahydro-2H-pyran-4-ylmethyl)amino]phenyl}sulfonyl)benzamide]: the “Binding selectivity ratio” value with GST-Bcl-2 was found to be 570.1. For the same compound, the “Selectivity Ratio (Platelet EC50/FL5.12/Bcl-2 EC50)” value in the series on FL5.12/Bcl-2 cells is on record as greater than 1196.

As for `CN(C)CCCNc1ccc(S(=O)(=O)NC(=O)c2ccc(N3CCN(CC4=C(c5ccc(Cl)cc5)CCC(C)(C)C4)CC3)cc2Oc2cccc3[nH]ccc23)cc1[N+](=O)[O-]` [Example 56, 4-(4-{[2-(4-chlorophenyl)-5,5-dimethylcyclohex-1-en-1-yl]methyl}piperazin-1-yl)-N-[(4-{[3-(dimethylamino)propyl]amino}-3-nitrophenyl)sulfonyl]-2-(1H-indol-4-yloxy)benzamide], the “Binding selectivity ratio” value in the series on GST-Bcl-2 is given as 48.2. Besides, in the series with FL5.12/Bcl-2 cells, the “Selectivity Ratio (Platelet EC50/FL5.12/Bcl-2 EC50)” value is reported as 554.

In the case of `O=C(NS(=O)(=O)c1ccc(NCCCN2CCCC2)c([N+](=O)[O-])c1)c1ccc(N2CCN(CC3=C(c4ccc(Cl)cc4)CCCCCC3)CC2)cc1Oc1cccc2[nH]ccc12` [Example 142, 4-(4-{[2-(4-chlorophenyl)cyclooct-1-en-1-yl]methyl}piperazin-1-yl)-2-(1H-indol-4-yloxy)-N-({3-nitro-4-[(3-pyrrolidin-1-ylpropyl)amino]phenyl}sulfonyl)benzamide], the “Binding selectivity ratio” value with GST-Bcl-2 is given as 27.8. The “Selectivity Ratio (Platelet EC50/FL5.12/Bcl-2 EC50)” value in the series with FL5.12/Bcl-2 cells is on record as greater than 185.

As for `CC1(C)CCC(CN2CCN(c3ccc(C(=O)NS(=O)(=O)c4ccc(NCCCN5CCCC5)c([N+](=O)[O-])c4)c(Oc4ccc5[nH]ccc5c4)c3)CC2)=C(c2ccc(Cl)cc2)C1` [Example 97, 4-(4-{[2-(4-chlorophenyl)-4,4-dimethylcyclohex-1-en-1-yl]methyl}piperazin-1-yl)-2-(1H-indol-5-yloxy)-N-({3-nitro-4-[(3-pyrrolidin-1-ylpropyl)amino]phenyl}sulfonyl)benzamide], in the series with GST-Bcl-2, the “Binding selectivity ratio” value is listed as 96.7. Also, in the series on FL5.12/Bcl-2 cells, the “Selectivity Ratio (Platelet EC50/FL5.12/Bcl-2 EC50)” value worked out at 1052.

On to `O=C(NS(=O)(=O)c1ccc(NCC2CCOCC2)c([N+](=O)[O-])c1)c1ccc(N2CCN(Cc3ccccc3-c3ccc(Cl)cc3)CC2)cc1Oc1ccc2[nH]ccc2c1` [Example 40, 4-{4-[(4′-chloro-1,1′-biphenyl-2-yl)methyl]piperazin-1-yl}-2-(1H-indol-5-yloxy)-N-({3-nitro-4-[(tetrahydro-2H-pyran-4-ylmethyl)amino]phenyl}sulfonyl)benzamide], for which, in the series on GST-Bcl-2, the “Binding selectivity ratio” value was greater than 1236.0. Also, the “Selectivity Ratio (Platelet EC50/FL5.12/Bcl-2 EC50)” value in the series with FL5.12/Bcl-2 cells is greater than 303.

As for `CN(C)CC[C@H](CSc1ccccc1)Nc1ccc(S(=O)(=O)NC(=O)c2ccc(N3CCN(Cc4ccccc4-c4ccc(Cl)cc4)CC3)cc2)cc1[N+](=O)[O-]` [ABT-737, 4-(4-((4′-chloro-1,1′-biphenyl-2-yl)methyl)piperazin-1-yl)-N-((4-(((1R)-3-(dimethylamino)-1-((phenylthio)methyl)propyl)amino)-3-nitrophenyl)sulfonyl)benzamide], the “decrease in circulating platelets” value is “rapid, concentration dependant decrease in circulating platelets” in the series with circulating platelets [1] and “rapid, concentration dependant decrease in circulating platelets” in the series with circulating platelets [2].

Turning to `CN(C)CCOc1cccc(-c2ccc(Cl)cc2)c1CN1CCN(c2ccc(C(=O)NS(=O)(=O)c3ccc(NCCCN4CCCC4)c([N+](=O)[O-])c3)c(Oc3ccc4[nH]ccc4c3)c2)CC1` [Example 134, 4-[4-({4′-chloro-3-[2-(dimethylamino)ethoxy]-1,1′-biphenyl-2-yl}methyl)piperazin-1-yl]-2-(1H-indol-5-yloxy)-N-({3-nitro-4-[(3-pyrrolidin-1-ylpropyl)amino]phenyl}sulfonyl)benzamide], the “Binding selectivity ratio” value in the series on GST-Bcl-2 amounted to 347.1. Also, in the series with FL5.12/Bcl-2 cells, the “Selectivity Ratio (Platelet EC50/FL5.12/Bcl-2 EC50)” value is 98.

With `CN1CCC(Nc2ccc(S(=O)(=O)NC(=O)c3ccc(N4CCN(CC5=C(c6ccc(Cl)cc6)CC(C)(C)CC5)CC4)cc3Oc3ccc4c(c3)CCCN4)cc2[N+](=O)[O-])CC1` [Example 23, 4-(4-{[2-(4-chlorophenyl)-4,4-dimethylcyclohex-1-en-1-yl]methyl}piperazin-1-yl)-N-({4-[(1-methylpiperidin-4-yl)amino]-3-nitrophenyl}sulfonyl)-2-(1,2,3,4-tetrahydroquinolin-6-yloxy)benzamide], the “Binding selectivity ratio” value in the series with GST-Bcl-2 came out at 25.3. In the series on FL5.12/Bcl-2 cells, the “Selectivity Ratio (Platelet EC50/FL5.12/Bcl-2 EC50)” value was greater than 35.
